Assay results taken from patent US8703961B2, “Thiazole derivatives for the treatment of diseases such as cancer” (Merck Patent GmbH, priority 2009, dated 2014).

What was measured:
TBK1 = biological target: T1, TBK1 (Homo sapiens, UniProt Q9UHD2); test: filter binding kinase assay; format: biochemical; settings: derived from % inhibition at 1 μM
T1 construct: purchased
T1 sequence (Q9UHD2 1-729): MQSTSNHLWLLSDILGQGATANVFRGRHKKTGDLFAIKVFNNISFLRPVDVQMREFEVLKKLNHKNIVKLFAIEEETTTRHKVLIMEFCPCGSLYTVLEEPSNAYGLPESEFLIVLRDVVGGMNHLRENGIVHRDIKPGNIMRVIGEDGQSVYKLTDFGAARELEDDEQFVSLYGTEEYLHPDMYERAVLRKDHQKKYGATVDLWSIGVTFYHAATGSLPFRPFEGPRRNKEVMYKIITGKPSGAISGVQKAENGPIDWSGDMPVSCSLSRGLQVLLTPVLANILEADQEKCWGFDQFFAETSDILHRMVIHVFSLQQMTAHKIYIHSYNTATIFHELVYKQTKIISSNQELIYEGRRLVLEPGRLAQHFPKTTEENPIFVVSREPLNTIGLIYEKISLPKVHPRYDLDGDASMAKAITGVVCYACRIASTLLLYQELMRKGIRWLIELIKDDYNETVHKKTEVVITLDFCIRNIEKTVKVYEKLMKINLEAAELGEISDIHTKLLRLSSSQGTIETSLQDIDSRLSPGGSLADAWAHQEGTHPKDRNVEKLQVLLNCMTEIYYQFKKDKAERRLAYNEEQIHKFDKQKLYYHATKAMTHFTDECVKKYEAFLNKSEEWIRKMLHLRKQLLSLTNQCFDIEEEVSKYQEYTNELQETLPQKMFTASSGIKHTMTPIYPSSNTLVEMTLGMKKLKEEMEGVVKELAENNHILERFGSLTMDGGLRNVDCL
Method: All kinase assays were carried out using the Multidrop 384 from Thermo-Fisher at room temperature in a total assay volume of 25.5 μl. 15 μl of an enzyme mix comprising enzyme and substrate in buffer are added to the test batch comprising either 0.5 μl of test substance, DMSO control or empty container. Test substances are pre-incubated in the presence of the enzyme and substrate for 5 minutes before the reaction is initiated by addition of 10 μl of ATP (concentration kinase-dependent of […]). The reaction is terminated by addition of 5 μl of orthophosphoric acid (50 mM). The test containers are then transferred onto P81 Unifilter plates by means of a “Packard Harvester” and dried in air. The dry Unifilter plates are sealed after the addition of MicroScint O, and the radioactivity is determined in a Packard Topcount NXT.

melting point [°C] | IC50 (TBK1) [nM] | Structure (SMILES)
139 to 144 |  | CC(C)(C)OC(=O)Nc1ncsc1C#Cc1ccc(F)cc1 [Compound A15, tert-butyl N-{5-[2-(4-fluorophenyl)ethynyl]-1,3-thiazol-4-yl}carbamate]
 | 10 to 1000 | Nc1ncc(-c2cnn(C3CCNCC3)c2)cc1-c1nc2[nH]c(-c3ccc(F)cc3)cc2s1 [Compound A31]
